What was measured:
Type in all cases: in vivo, C57BL/6 J male mice
HFD-fed mice [1] = test: Glucose tolerance test and fasting glucose in HFD-fed mice; conditions: for fasting glucose levels: 12-h fast; for glucose tolerance (intraperitoneal glucose tolerance test): 14 days treatment
Procedure: The glucose tolerance test was conducted on mice fasted for 12 h with ad libitum access to water. Mice were intraperitoneally injected with 20% D-( +)-glucose (2 g/kg body weight, #49139, Sigma), and blood glucose levels were measured at each time point using a Gluco Doctor Top meter and strip (Allmedicus, South Korea).

HFD-fed mice [2] = test: Diet-induced obesity model: body weight, body composition, adipose weights, micro-CT; conditions: for fat mass reduction relative to HFD controls / reduction in total body weight compared to the HFD control group: LJ-4378 1 mg/kg/day I.P., TZP 10 nmol/kg/day S.C.
Procedure: Animal experiments were conducted in accordance with the guidelines approved by the Institutional Animal Care and Use Committees (IACUC) of Seoul National University (SNU-230113–5-2, SNU-250410–1, and SNU-250811–5). C57BL/6 J male mice and Sprague–Dawley (SD) male rats were raised in a controlled animal facility with a temperature of 22 ± 1 °C and subjected to a 12-h light/12-h dark cycle. Mice were randomly assigned to experimental groups and fed either a normal chow diet (NCD, protein: 24.52% calories, carbohydrates: 63.07% calories, fat: 12.41% calories, 38,057, Purina Lab, Seongnam, Republic of Korea) or a high-fat diet (HFD, protein: 20% kcal, carbohydrate: 20% kcal, fat: 60% kcal, New Brunswick, D12492, Research Diets, NJ, USA) for the specified durations, according to group assignment. Both diet and water were provided ad libitum. SD rats (230–240 g) were provided standard rat chow and had free access to water. Prior to the experiment, the rats underwent a 12-h fasting period.
(§1) To evaluate the anti-obesity effect in vivo, mice fed either NCD or HFD for 10 weeks were subsequently treated for up to 4 weeks. To control for injection route-related variables, all mice received both intraperitoneal (I.P.) and subcutaneous (S.C.) injections. The administration were as follows: LJ-4378 treated mice received LJ-4378, which was synthesized in our laboratory at > 95% purity (1 mg/kg/day, I.P.) (Hou et al. [2010]; Kim et al. [2022]) along with the vehicle for TZP (40 mM Tris–HCl, pH 8, S.C.); TZP treated mice received TZP (Samms et al. [2021]; Kim et al. [2022]) (LY3298176, MedChemExpress, Monmouth Junction, NJ, USA) (10 nmol/kg/day, S.C.) along with the vehicle for LJ-4378 (0.2% DMSO, I.P.); vehicle control mice received both vehicles (0.2% DMSO, I.P. and 40 mM Tris–HCl, pH 8, S.C.)
Body composition and micro-CT analysis were performed after the treatment with vehicle, LJ-4378, or TZP for the indicated duration in HFD-fed mice and WR mice.
A nuclear magnetic resonance (NMR) technology system with EchoMRI-700 (Echo Medical Systems, […]) was used to analyze body composition.
To assess the abdominal fat volume, we employed the Quantum GX2 micro-CT imaging system (PerkinElmer, Waltham, MA, USA). Mice were anesthetized with isoflurane and positioned on the micro-CT bed for imaging of the abdominal region, defined from the proximal end of the L1 vertebra to the distal end of the L5 vertebra. Imaging was performed at 90 kV/88 µA with a field of view of 72 mm, a pixel size of 90 µm, and a 2-min acquisition time at standard resolution. Visceral, subcutaneous, and total abdominal fat volumes were quantified using AnalyzeDirect software (ver. 12.0, Overland Park, KS, USA).

HFD-fed mice [3] = test: Immunoblot of lipolytic, thermogenic and mitochondrial proteins in BAT and iWAT; serum FFA; conditions: for P-HSL, P-CREB, UCP1 and COXIV levels in BAT: western blot
Procedure: as §1
Serum free fatty acid (FFA) levels were quantification using HR Series NEFA-HR (2) (Color Reagent A (#999–34691), Solvent A (#995–34791), Color Reagent B (#991–34891), Solvent B (#993–35191), and NEFA Standard Solution (#276–76491) (FUJIFILM Wako Pure Chemicals, Osaka, Japan), following the manufacturer’s instruction.
(§2) For protein extraction, we utilized PRO-RERP Protein Extraction Solution (17081, iNtRON Biotechnology, Gyeonggi-do, Korea), supplemented with […] […] Protein concentrations were determined using the Pierce BCA protein assay Kit (#23227, Thermo Fisher, Waltham, Massachusetts, USA) by measuring absorbance at 562 nm with a MultiSkan GO spectrophotometer (Thermo Fisher). The quantified proteins were loaded and separated in 12% SDS-PAGE gels and transferred to polyvinylidene difluoride (PVDF) membranes (Bio-Rad, Hercules, CA, USA). […] After secondary antibody incubation, membranes were washed 3 times with TBST and detected with the Fusion Solo chemiluminescence imaging system (Vilber Lourmat, France). EvolutionCapt (version 17.03) software and the ImageJ (National Institutes of Health, Bethesda, MD, USA) program were used for analysis and to quantify the protein level.

HFD-fed mice [4] = test: Hepatic PKA signaling (immunoblot, liver); conditions: P-HSL/HSL, P-CREB/CREB
Procedure: To evaluate the anti-obesity effect in vivo, mice fed either NCD or HFD for 10 weeks were subsequently treated for up to 4 weeks. To control for injection route-related variables, all mice received both intraperitoneal (I.P.) and subcutaneous (S.C.) injections. […]
as §2
Western blot analysis of P-HSL/HSL and P-CREB/CREB in liver. […] Statistical significance was determined using two-way ANOVA followed by Bonferroni post hoc test.

HFD-fed mice [5] = test: Indirect calorimetry and food intake in HFD-fed mice; conditions: for energy expenditure adjusted for body weight and lean body mass (ANCOVA) / food intake (indirect calorimetry): HFD-fed mice; for VO2, VCO2 and energy expenditure: relative to HFD controls, last 2 days of 14-day treatment
Procedure: as §1
To assess post-treatment weight rebound (WR), the mice previously treated with vehicle, LJ-4378, or TZP were maintained on HFD for an additional 4 weeks following treatment cessation. Treatment protocols for the WR groups were identical to those of the HFD groups. In total, nine experimental groups were established: NCD + CTL, NCD + LJ, NCD + TZP; HFD + CTL, HFD + LJ, HFD + TZP; and WR + CTL, WR + LJ, WR + TZP. The volume of oxygen consumed (VO2), carbon dioxide produced (VCO2), respiratory exchange ratio (RER), energy expenditure, activity, and food intake were measured with PhenoMaster (TSE Systems, Bad Homburg, Germany). Indirect calorimetry was performed under controlled conditions, with a stable ambient temperature of 24 °C and a 12 h light/12-h dark cycle. Mice fed HFD were administered vehicle, LJ-4378, or TZP for 14 days, and the last 2 days of treatment were conducted during indirect calorimetry analysis. The WR model was examined by indirect calorimetry after 2 and 4 weeks of the weight regaining phase.

In the case of `CCCCC#Cc1nc(N)c2ncn([C@@H]3SC[C@@H](O)[C@H]3O)c2n1` [LJ-4378], the fasting glucose levels (HFD-fed mice [1]) was “significantly lower”, the “glucose tolerance (intraperitoneal glucose tolerance test)” value (HFD-fed mice [1]) was “markedly enhanced” and the “fat ratio (% of the total body weight)” value (HFD-fed mice [2]; 4 weeks of LJ-4378, HFD-fed mice) was 20.1%. For the same compound, the “fat mass reduction relative to HFD controls” value (HFD-fed mice [2]; 14 days) was 30.7%, the “reduction in total body weight compared to the HFD control group” value (HFD-fed mice [2]; 14 days) was 9.04% and the “iWAT and gWAT mass” value (HFD-fed mice [2]; HFD-fed mice, 14 days) was “significantly reduced”. The “visceral and subcutaneous abdominal fat (micro-CT)” value (HFD-fed mice [2]; HFD-fed mice, 14 days) was “reduction”, the “reduction in body weight” value (HFD-fed mice [2]; four weeks of LJ-4378 administration, HFD-fed mice) was 15.5% and the “UCP1 expression in BAT, LJ-4378 versus TZP” value (HFD-fed mice [3]) was “more strongly induced”. For the same compound, the “P-HSL, P-CREB, UCP1 and COXIV levels in BAT” value (HFD-fed mice [3]) was “elevated levels”, the “phosphorylation of downstream targets of PKA in the liver” value (HFD-fed mice [4]) was “Neither LJ-4378 nor TZP altered the phosphorylation” and the “energy expenditure adjusted for body weight and lean body mass (ANCOVA)” value (HFD-fed mice [5]) was “consistently increased energy expenditure”. For the same compound, the “food intake (indirect calorimetry)” value (HFD-fed mice [5]) was “did not affect the feeding behavior” and the “VO2, VCO2 and energy expenditure” value (HFD-fed mice [5]) was “significantly increased”.

With Tirzepatide [TZP, reference compound] the fasting glucose levels (HFD-fed mice [1]) was “significantly lower”, the “glucose tolerance (intraperitoneal glucose tolerance test)” value (HFD-fed mice [1]) was “markedly enhanced” and the “fat ratio (% of the total body weight)” value (HFD-fed mice [2]; 2 weeks of TZP treatment, HFD-fed mice) was 27.4%. For the same compound, the “fat mass reduction relative to HFD controls” value (HFD-fed mice [2]; 14 days) was 32.4%, the “reduction in total body weight compared to the HFD control group” value (HFD-fed mice [2]; 14 days) was 18.63% and the “brown adipose tissue (BAT) mass” value (HFD-fed mice [2]; HFD-fed mice, 14 days) was “reduced”. The “iWAT and gWAT mass” value (HFD-fed mice [2]; HFD-fed mice, 14 days) was “significantly reduced”, the “visceral and subcutaneous abdominal fat (micro-CT)” value (HFD-fed mice [2]; HFD-fed mice, 14 days) was “reduction” and the “P-HSL, P-CREB, UCP1 and COXIV levels in BAT” value (HFD-fed mice [3]) was “elevated levels”. The “phosphorylation of downstream targets of PKA in the liver” value (HFD-fed mice [4]) was “Neither LJ-4378 nor TZP altered the phosphorylation”, the “energy expenditure adjusted for body weight and lean body mass (ANCOVA)” value (HFD-fed mice [5]) was “not significant when LBM was used as the covariate” and the “food intake (indirect calorimetry)” value (HFD-fed mice [5]) was “reduced food consumption”. For the same compound, the “VO2, VCO2 and energy expenditure” value (HFD-fed mice [5]) was “significantly increased”.
